Laboratory results as given in the OPERA property sets (Mansouri et al. 2018).
≈ marks a conversion by molar mass, not a printed value.

Settings: 25 °C

Row | SMILES | solubility
1 | CC(=O)OCCBr | 212000 µM (≈ 35400 µg/mL)
2 | Cc1c(C)c(C)c(C)c(C)c1C | 1.45 µM (≈ 0.235 µg/mL)
3 | CCCCCCCC(C)=O | 2610 µM (≈ 371 µg/mL)
4 | Fc1cccc2ccccc12 | 353 µM (≈ 51.5 µg/mL)
5 | CCCCCCCc1ccccc1 | 2.54 µM (≈ 0.447 µg/mL)
6 | Clc1cccc2ccccc12 | 107 µM (≈ 17.4 µg/mL)
7 | CCCCCCCCC(C)=O | 491 µM (≈ 76.8 µg/mL)
8 | Cc1ccc(C)c(O)c1C | 11600 µM (≈ 1580 µg/mL)
9 | CC(Br)CCl (configuration not stated) | 14200 µM (≈ 2240 µg/mL)
10 | CCCCCCCCc1ccccc1 | 0.347 µM (≈ 0.066 µg/mL)
11 | CCCCCCCCC(=O)OC | 133 µM (≈ 22.9 µg/mL)
12 | Fc1ccc(CCl)cc1 | 2860 µM (≈ 413 µg/mL)
